{"source": "patent US20110105442A2", "about": "“MEANS AND METHODS FOR CONTROLLING COMMENSALES” (Biotechnology Research And Information Network, AG …, priority 2008, published 2011)", "origin": "cited, not measured here", "system": "certain Gram-positive and Gram-negative bacteria including commensales of the skin", "settings": "Malmstrøm et al., 2002, biofilm not assayed", "note": "Like-named read-outs stand apart in the source and are kept apart here."}
{"smiles": "C/C=C/C1=CC(=O)[C@H](O)[C@H]1O", "note": "(stereo in doubt) [Terrein, 4,5-Dihydroxy-3-(1-propenyl)-2-cyclopenten-1-one]", "values": [{"measurement": "antibacterial activity", "result": "weak antibacterial activity"}, {"measurement": "antibacterial activity", "setting": "listed as terrein", "result": "weak to negligible activity"}]}
